Reference: patent publication US20220315534A1, “BETA ADRENERGIC AGONIST AND METHODS OF USING THE SAME” (Curasen Therapeutics, Inc., priority 2019, published 2022)

Assays:
[1] = molecular target: T1, β2-adrenergic receptor (B2-AR) (Homo sapiens, UniProt P07550); assay: cAMP Gs dynamic HTRF assay, cells expressing β2-adrenergic receptor; format: cell-based; settings: CHO-K1 (HitHunter) cells; read-out: Average pEC50 [Receptor subtype: B2-AR; Cell type: CHO-K1 (HitHunter)] (converted)
T1 construct: expressed in transfected cells
Procedure: (§1) cAMP homogeneous time-resolved fluorescence (HTRF): experimental methods. Compound efficacy is determined using the cAMP Gs dynamic HTRF assay (Cisbio, catalog #62AM4PEC) largely following the manufacturer's instructions, also detailed below.
(§2) Standard serial dilution curves are 10-point, 5-fold dilutions starting from a highest concentration of 10 μM. […] Assay plates are centrifuged at 500×g for 10 seconds. Compounds and IBMX are prepared at 2× final dose to compensate for addition of cells.
(§3) Cell preparation: 1× stimulation buffer, washing PBS (Dulbecco's phosphate-buffered saline, —Mg —Ca; Caisson Labs, catalog #PBL01), assay PBS (Dulbecco's phosphate-buffered saline, +Mg, +Ca; Caisson Labs, catalog #PBL02) and Versene (0.02% EDTA disodium salt solution in PBS without calcium or magnesium; Caisson Labs, catalog #EDL01) are pre-warmed to 37° C. Cells expressing beta-adrenergic receptor were washed in washing PBS to remove growth medium and then released from the surface by incubating with Versene for 5-10 minutes at 37° C. Cells are harvested using assay PBS, counted manually by hemocytometer or by an automated cell counter, pelleted by centrifugation (200×g, 5 minutes) and resuspended in 37° C. 1× stimulation buffer to a final density of […]. 5 μL of the suspended cell solution (7500 cell total) are added to all wells of the 384 well assay plate, the assay plate was covered with an Axygen® plate seal (Corning PCR-SP) and incubated in a humidified 37° C. environment supplemented with 5% CO2 for 30 minutes.
(§4) HTRF reagent addition, reading and data analysis: After 30 minutes of cell stimulation with test compound, the assay plates are centrifuged at 500×g for 10 seconds, and incubation was stopped with the addition of 5 μL cAMP-D2 acceptor, diluted 1:21 in detection and lysis buffer 2 (Cisbio 62CL2FDF) was added to all cells. Subsequently, 5 μL Anti-cAMP-Eu Donor, diluted 1:21 in detection and lysis buffer 2, was added to cells. Plates were sealed and reactions gently ‘vortexed’ at 900 rpm on a Heidolph Titramax 1000 for at least 30 minutes at room temperature. Plates are centrifuged again at 500×g for 10 seconds, and HTRF was measured using a Tecan Spark plate reader at 50 flashes per well. […] Potency estimates (EC50 and pEC50) are derived from the four-parameter nonlinear regression of the concentration-effect curve and an estimate of relative efficacy is determined by comparing the magnitude of the test compound HTRF signal window (min-max dose) with the signal window of the full agonist control, isoproterenol.

[2] = molecular target: T2, β1-adrenergic receptor (B1-AR) (Homo sapiens, UniProt P08588); assay: cAMP Gs dynamic HTRF assay, cells expressing β1-adrenergic receptor; format: cell-based; settings: CHO-K1 (HitHunter) cells; read-out: Average pEC50 [Receptor subtype: B1-AR; Cell type: CHO-K1 (HitHunter)] (converted)
T2 construct: expressed in transfected cells
Procedure: as §1, §2, §3, §4

T1 sequence (P07550 whole entry): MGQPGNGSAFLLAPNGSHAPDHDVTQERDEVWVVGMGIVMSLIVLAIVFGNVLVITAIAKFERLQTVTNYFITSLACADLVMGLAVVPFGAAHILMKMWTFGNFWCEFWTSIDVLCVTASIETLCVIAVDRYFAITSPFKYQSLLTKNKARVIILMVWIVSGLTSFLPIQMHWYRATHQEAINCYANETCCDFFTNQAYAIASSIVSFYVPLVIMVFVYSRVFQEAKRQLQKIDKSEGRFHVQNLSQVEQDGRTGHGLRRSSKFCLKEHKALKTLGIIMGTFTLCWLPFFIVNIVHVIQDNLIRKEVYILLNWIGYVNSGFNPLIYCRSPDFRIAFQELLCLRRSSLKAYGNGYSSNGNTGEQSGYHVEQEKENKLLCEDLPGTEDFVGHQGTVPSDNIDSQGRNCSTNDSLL
T2 sequence (P08588 whole entry): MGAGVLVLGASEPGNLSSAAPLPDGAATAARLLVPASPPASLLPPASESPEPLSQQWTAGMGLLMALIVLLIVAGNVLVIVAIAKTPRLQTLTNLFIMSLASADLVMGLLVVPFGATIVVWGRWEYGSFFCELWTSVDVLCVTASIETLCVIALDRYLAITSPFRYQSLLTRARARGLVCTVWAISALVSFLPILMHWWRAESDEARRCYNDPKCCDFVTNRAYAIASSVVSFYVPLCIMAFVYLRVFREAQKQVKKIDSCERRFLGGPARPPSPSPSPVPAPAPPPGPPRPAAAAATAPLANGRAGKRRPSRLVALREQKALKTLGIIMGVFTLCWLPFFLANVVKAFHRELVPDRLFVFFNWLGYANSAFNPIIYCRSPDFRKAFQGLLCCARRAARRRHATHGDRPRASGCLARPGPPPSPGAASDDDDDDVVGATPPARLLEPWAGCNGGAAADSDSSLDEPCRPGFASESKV

SMILES	EC50 [1]	EC50 [2]
Cn1ncc2cc([C@H](O)CNC(C)(C)C)ccc21 [Compound 04-50]	10 to 100 nM	100 to 1000 nM
Cc1noc2ccc([C@H](O)CNC(C)(C)C)cc12 [Compound 04-52]	10 to 100 nM	100 to 1000 nM
CC(C)(C)NC[C@H](O)c1cccc2c1CCCC(=O)N2 [Compound 04-129]	10 to 100 nM	> 1000 nM
Cn1ncc2cc([C@@H](O)CNC(C)(C)C)ccc21 [Compound 04-49]	> 1000 nM	> 1000 nM
CC(C)(C)NC[C@H](O)c1ccnc2[nH]ncc12 [Compound 04-127]	< 10 nM	10 to 100 nM
CC(C)(C)NC[C@H](O)c1ccc(F)c2[nH]c3ccccc3c12 [Compound 04-122]	< 10 nM	< 10 nM
CC(C)(C)NC[C@@H](O)c1cccc2nccnc12 [Compound 04-74]	> 1000 nM	> 1000 nM
CC(C)(C)NC[C@H](O)c1cccc2cn[nH]c12 [Compound 04-26]	10 to 100 nM	10 to 100 nM
COc1ccc(C[C@@H](C)NC[C@H](O)c2cccc3[nH]c4ccccc4c23)cc1 [Compound 04-125]	< 10 nM	10 to 100 nM
Cc1ccc2cccc([C@@H](O)CNC(C)(C)C)c2n1 [Compound 04-88]	< 10 nM	< 10 nM
Cn1c(=O)ccc2c([C@H](O)CNC(C)(C)C)cccc21 [Compound 04-15]	100 to 1000 nM	> 1000 nM
Cc1ccc2cccc([C@H](O)CNC(C)(C)C)c2n1 [Compound 04-87]	100 to 1000 nM	100 to 1000 nM
CC(C)(C)NC[C@@H](O)c1ccc(F)c2cccnc12 [Compound 04-79]	100 to 1000 nM	100 to 1000 nM
O=c1ccc2c([C@@H](O)CNC3CCC3)cccc2[nH]1 [Compound 04-142]	< 10 nM	< 10 nM
CC(C)(C)NC[C@H](O)c1ccc2c(n1)NCC2 [Compound 04-11]	10 to 100 nM	10 to 100 nM
Cc1nc(N)c(Cl)cc1[C@H](O)CNC(C)(C)C [Compound 02-9]	10 to 100 nM	100 to 1000 nM
